We go through two molecules from US9618513B2, “Compositions and methods for detecting and treating colorectal cancer” (The Regents of the University of Michigan, priority 2014, dated 2017).

What all share (format): cell-based, human
For assay [1], the system named is colon cancer cells. The assay is described as follows: Colon cancer cell proliferation (Ki67 FACS, H3 thymidine incorporation, cell counting). Particulars: H3 thymidine incorporation. An excerpt:
A. GSEA analysis identifies proliferation pathways have positive correlation with IL-22. B. Cell proliferation maker Ki67 was detected by FACS. C. H^3 Thymidine Incorporation was used to detect the function of IL-22 in cell proliferation. D. Cell number was counted after stimulated with IL-22. E. Cells isolated from colon cancer tissue (Tumor cells and Leukocytes) were stimulated with a-CD3 and […] for 3 days, and supernatant mixed with or without anti-IL-22 antibody was co-cultured with DLD1 cells for 24 h to test cell proliferation. F. Cell cyclin-dependent kinase and kinase inhibitors were analyzed by Real-Time PCR.
A, C. Cell proliferation was analyzed using H^3 Thymidine Incorporation. B. The level of total H3K79m2 and H3K27me3 was measured by Western Blot. D. PcG proteins of EZH2, EED, SUZ12 was increased with IL-22(20 ng/ml) treatment. E. EZH2, SUZ12 and EED was detected by Western Blot after IL-22 treated for 24 h or 48 h. F. EZH2 inhibitor DZNep reduced cell proliferation. G.H. The efficiency of EZH2 and SUZ12 knock down was tested by Western Blot. I.J. Cell proliferation was analyzed using H^3 Thymidine Incorporation after knock down of EZH2 and SUZ12. K.L. Relative expression of cyclin-dependent kinase inhibitors (p16 and p18) in shEZH2, shSUZ12 and Dznep treated cells after IL-22 treatment. M. The level of H3K27me3 in the promoter of p16 and p18 was analyzed by ChIP assay.
A. The protein level of phosphorylated STAT3, STAT1 and STATS were activated by IL-22. B. The effect of STAT3 knock down. C. The effect of IL-22 on cell proliferation was analyzed using H^3 Thymidine Incorporation in Stat3 knock down cells. D. Knock down of STAT3 reduced the expression of EZH2 and SUZ12. E. Based on the ENCODE STAT3-ChIP-Seq data base, STAT3 occupancy on the promoter areas of SUZ12 and EED is shown. F. SUZ12/EED DNA was detected by ChIP assay using an antibody against STAT3, c-fos was used as a positive control.
(§1) Three primary colon cancer cell lines (SB, WR, JR) were established from fresh colon tissues. These primary colon cancer cells and DLD1 (ATCC) were studied. Colon cancer cells were treated with recombinant IL-22 (R&D) for different time points. The EZH2 inhibitor DZNep was added in conventional or sphere culture (see, e.g., Kryczek, I., et al., (2012) International journal of cancer 130, 29-39). Tumor cell sphere formation and gene expression were examined (see, e.g., Kryczek, I., et al., (2012) International journal of cancer 130, 29-39).
A general note: Incorporation of labelled thymidine or its analogues reports DNA synthesis.

Assay [2] relates to primary colon cancer cell line SBCA. The assay is described as follows: Proliferation of primary colon cancer cell line SBCA. Here is the method: FIG. 21A-E A. Dot1L/H3K79me2 inhibitor EZP004777 (10 uM) had no effect on SUZ12 expression but reduce Sox2. B. EZP004777 had no effect on primary colon cancer cell line SBCA. C. EZH2 inhibitor DZNep reduced SBCA cell proliferation. D. SUZ12 knockdown reduced H3K27m3 level. E. Effect of I1-22 on tumor sphere assay was analyzed in shEZH2, shSUZ12 and Dznep treated cells.
as §1

The test system of assay [3] is CD4+ T cells. Nature of the assay: Transwell migration assay. Particulars: CCL-20 5 ng/ml in lower chamber, 4 h. As to the method:
(A, B) IL-22 is expressed by immune cells in colon cancer tissues. Different cell populations were sorted from colon cancer tissues and IL-22 expression was measured by real time PCR. (5-10 donors, P<0.05). (C) IL-22 is spontaneously released by different immune cell populations in colon cancer tissues. Different CD45^+ immune subsets (10^6/ml) were sorted from colon cancer and blood, and cultured for 12 hours. IL-22 was detected via ELISA. (n=5, *P<0.05). (D, E) IL-22 is expressed by activated CD4^+ T cells in colon cancer tissues. CD45^+ subsets (10^6/ml) were sorted from colon cancer and blood, and were activated with anti-CD3 and anti-CD28 for 2 days. IL-22 was detected with ELISA (D) or intracellular staining (E). (n=5, *P<0.05). (F, G) CCR6^+CD4^+ T cells express IL-22. CD4^+ T cells were sorted based on CCR6 expression and activated with anti-CD3 and anti-CD28 and antigen presenting cells. IL-22 mRNA was detected by real time PCR (F) and protein by ELISA (G). (5 different donors, P<0.05). […] IL-22 expression was quantified with real-time PCR in the migrated and non-migrated cells. Results are expressed as the mean relative expression (H). The phenotype of migrated cells, non-migrated cells and control (before migration) was analyzed by FACS (I). […] The mRNA of stem cell core genes was detected by real-time PCR after 6 hours (K) and ALDH activity was detected by FACS after 48 hours (L). […]

With `Nc1nccc2c1ncn2C1C=C(CO)C(O)C1O` (stereo not drawn) [DZNep, reference compound], the “colon cancer cell proliferation induced by IL-22” value in assay [1] was “significantly blocked”. Besides, in assay [2], the SBCA cell proliferation entry is listed as “reduced”. Take “CCL20: the ligand for CCR6; CCL-20 (5 ng/ml, R&D)”: in assay [3], the T cell migration entry is listed as “efficiently migrated”.
